Laboratory results: patent US6355799B1, “Substituted benzene compounds, process for their preparation, and herbicidal and defoliant compositions containing them” (ISK Americas Incorporated, priority 1997, dated 2002)

Key:
Type in all cases: in vivo
[1] = test system: barnyardgrass (Echinochloa crus-galli, ECHCG); test: Post-emerge test, greenhouse herbicide activity screening; conditions: post-emerge, 14 days after application, rating scale 0-100
Summary of the method: (§1)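 Fourteen days after spraying, crop and weed injury was graded visually from 0, no effect, to 100, every plant dead. Test substances were dissolved in acetone and applied at 15–1000 g ai/ha with a flat-fan nozzle. Application was either pre-emergence, one day after sowing, or post-emergence at the 2–3 leaf stage.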

[2] = test system: green foxtail (Setaria viridis, SETVI); test: as above; conditions: post-emerge, 14 days after application, rating scale 0-100
Summary of the method: as §1

[3] = test system: ivyleaf morningglory (Ipomoea hederacea, IPOHE); test: as above; conditions: post-emerge, 14 days after application, rating scale 0-100
Summary of the method: as §1

[4] = test system: johnsongrass (Sorghum halepense, SORHA); test: as above; conditions: post-emerge, 14 days after application, rating scale 0-100
Summary of the method: as §1

[5] = test system: lambsquarters (Chenopodium album, CHEAL); test: as above; conditions: post-emerge, 14 days after application, rating scale 0-100
Summary of the method: as §1

[6] = test system: large crabgrass (Digitaria sanguinalis, DIGSA); test: as above; conditions: post-emerge, 14 days after application, rating scale 0-100
Summary of the method: as §1

[7] = test system: redroot pigweed (Amaranthus retroflexus, AMARE); test: as above; conditions: post-emerge, 14 days after application
Summary of the method: as §1

[8] = test system: sicklepod (Cassia obtusifolia, CASOB); test: as above; conditions: post-emerge, 14 days after application, rating scale 0-100
Summary of the method: as §1

[9] = test system: velvetleaf (Abutilon theophrasti, ABUTH); test: as above; conditions: post-emerge, 14 days after application, rating scale 0-100
Summary of the method: as §1

[10] = test system: field corn (Zea mays L., var. Dekalb 535, CORN); test: Post-emerge test, crop safety; conditions: post-emerge, 14 days after application, rating scale 0-100
Summary of the method: (§2)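 Herbicidal damage is scored 0 (none) to 100 (complete plant death) two weeks after a simulated field spray. Rates span 15–1000 g ai/ha, delivered in acetone at 187 l/ha. For post-emergence treatments, plants have 2–3 leaves and the spray carries 0.25% v/v non-ionic surfactant.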

[11] = test system: upland rice (Oryza sp., var. Tebonnet, RICE); test: Post-emerge test, crop safety; conditions: post-emerge, 14 days after application, rating scale 0-100
Summary of the method: as §2

[12] = test system: redroot pigweed (Amaranthus retroflexus, AMARE); test: Pre-emerge test, greenhouse herbicide activity screening; conditions: phytotoxicity rating 0-100, 14 days after application
Summary of the method: (§3)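 Rating: 0–100 visual injury, 14 DAA. Application: acetone, 187 l/ha, 15–1000 g ai/ha, flat-fan track sprayer with nozzle 40–45 cm above soil or canopy. Post-emerge runs used 0.25% v/v surfactant on 2–3 leaf plants.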

[13] = test system: barnyardgrass (Echinochloa crus-galli, ECHCG); test: as above; conditions: phytotoxicity rating 0-100, 14 days after application
Summary of the method: as §2

[14] = test system: green foxtail (Setaria viridis, SETVI); test: as above; conditions: phytotoxicity rating 0-100, 14 days after application
Summary of the method: as §2

[15] = test system: ivyleaf morningglory (Ipomoea hederacea, IPOHE); test: as above; conditions: phytotoxicity rating 0-100, 14 days after application
Summary of the method: as §2

[16] = test system: johnsongrass (Sorghum halepense, SORHA); test: as above; conditions: phytotoxicity rating 0-100, 14 days after application
Summary of the method: as §2

[17] = test system: lambsquarters (Chenopodium album, CHEAL); test: as above; conditions: phytotoxicity rating 0-100, 14 days after application
Summary of the method: as §2

[18] = test system: large crabgrass (Digitaria sanguinalis, DIGSA); test: as above; conditions: phytotoxicity rating 0-100, 14 days after application
Summary of the method: as §2

[19] = test system: sicklepod (Cassia obtusifolia, CASOB); test: as above; conditions: phytotoxicity rating 0-100, 14 days after application
Summary of the method: as §2

[20] = test system: velvetleaf (Abutilon theophrasti, ABUTH); test: as above; conditions: phytotoxicity rating 0-100, 14 days after application
Summary of the method: as §2

[21] = test system: field corn (Zea mays L., var. Dekalb 535, CORN); test: Pre-emerge test, crop safety; conditions: crop damage rating 0-100, 14 days after application
Summary of the method: as §3

[22] = test system: upland rice (Oryza sp., var. Tebonnet, RICE); test: Pre-emerge test, crop safety; conditions: crop damage rating 0-100, 14 days after application
Summary of the method: as §3

[23] = 63 g ai/ha, rating scale 0-100 (0 no damage, 100 complete death)
[24] = 250 g ai/ha, rating scale 0-100

Cn1c(C(F)(F)F)cc(=O)n(-c2c(Cl)cc(Cl)cc2OC(=O)c2ccc(F)cc2F)c1=O [16-4]
Post-emerge Herbicidal Activity ECHCG (phytotoxicity rating) ([1]; 63 g ai/ha): 0
Post-emerge Herbicidal Activity ECHCG (phytotoxicity rating) ([1]; 250 g ai/ha): 0
Post-emerge Herbicidal Activity SETVI (phytotoxicity rating) ([2]; 63 g ai/ha): 0
Post-emerge Herbicidal Activity SETVI (phytotoxicity rating) ([2]; 250 g ai/ha): 0
Post-emerge Herbicidal Activity IPOHE (phytotoxicity rating) ([3]; 63 g ai/ha): 0
Post-emerge Herbicidal Activity IPOHE (phytotoxicity rating) ([3]; 250 g ai/ha): 0
Post-emerge Herbicidal Activity SORHA (phytotoxicity rating) ([4]; 63 g ai/ha): 0
Post-emerge Herbicidal Activity SORHA (phytotoxicity rating) ([4]; 250 g ai/ha): 0
Post-emerge Herbicidal Activity CHEAL (phytotoxicity rating) ([5]; 63 g ai/ha): 0
Post-emerge Herbicidal Activity CHEAL (phytotoxicity rating) ([5]; 250 g ai/ha): 0
Post-emerge Herbicidal Activity DIGSA (phytotoxicity rating) ([6]; 63 g ai/ha): 0
Post-emerge Herbicidal Activity DIGSA (phytotoxicity rating) ([6]; 250 g ai/ha): 0
Post-emerge Herbicidal Activity AMARE (phytotoxicity rating) [7, 23]: 0
Post-emerge Herbicidal Activity AMARE (phytotoxicity rating) [7, 24]: 0
Post-emerge Herbicidal Activity CASOB (phytotoxicity rating) ([8]; 63 g ai/ha): 0
Post-emerge Herbicidal Activity CASOB (phytotoxicity rating) ([8]; 250 g ai/ha): 0
Post-emerge Herbicidal Activity ABUTH (phytotoxicity rating) ([9]; 63 g ai/ha): 0
Post-emerge Herbicidal Activity ABUTH (phytotoxicity rating) ([9]; 250 g ai/ha): 0
Post-emerge Herbicidal Activity CORN (crop damage rating) ([10]; 63 g ai/ha): 0
Post-emerge Herbicidal Activity CORN (crop damage rating) ([10]; 250 g ai/ha): 0
Post-emerge Herbicidal Activity RICE (crop damage rating) ([11]; 63 g ai/ha): 0
Post-emerge Herbicidal Activity RICE (crop damage rating) ([11]; 250 g ai/ha): 0

COc1c(Cl)cc(F)c(-n2c(=O)cc(C(F)(F)F)n(C)c2=O)c1NC(=O)OC(c1ccccc1)C1CC1 (stereo not shown) [4-46]
Pre-emerge Herbicidal Activity AMARE ([12]; 63 g ai/ha): 80
Pre-emerge Herbicidal Activity AMARE ([12]; 250 g ai/ha): 100
Pre-emerge Herbicidal Activity ECHCG ([13]; 63 g ai/ha): 20
Pre-emerge Herbicidal Activity ECHCG ([13]; 250 g ai/ha): 60
Pre-emerge Herbicidal Activity SETVI ([14]; 63 g ai/ha): 40
Pre-emerge Herbicidal Activity SETVI ([14]; 250 g ai/ha): 100
Pre-emerge Herbicidal Activity IPOHE ([15]; 63 g ai/ha): 10
Pre-emerge Herbicidal Activity IPOHE ([15]; 250 g ai/ha): 85
Pre-emerge Herbicidal Activity SORHA ([16]; 63 g ai/ha): 20
Pre-emerge Herbicidal Activity SORHA ([16]; 250 g ai/ha): 60
Pre-emerge Herbicidal Activity CHEAL ([17]; 63 g ai/ha): 100
Pre-emerge Herbicidal Activity CHEAL ([17]; 250 g ai/ha): 100
Pre-emerge Herbicidal Activity DIGSA ([18]; 63 g ai/ha): 70
Pre-emerge Herbicidal Activity DIGSA ([18]; 250 g ai/ha): 95
Pre-emerge Herbicidal Activity CASOB ([19]; 63 g ai/ha): 30
Pre-emerge Herbicidal Activity CASOB ([19]; 250 g ai/ha): 40
Pre-emerge Herbicidal Activity ABUTH ([20]; 63 g ai/ha): 50
Pre-emerge Herbicidal Activity ABUTH ([20]; 250 g ai/ha): 100
Pre-emerge Herbicidal Activity CORN ([21]; 63 g ai/ha): 0
Pre-emerge Herbicidal Activity CORN ([21]; 250 g ai/ha): 5
Pre-emerge Herbicidal Activity RICE ([22]; 63 g ai/ha): 10
Pre-emerge Herbicidal Activity RICE ([22]; 250 g ai/ha): 50
phytotoxicity rating ECHCG ([1]; 63 g ai/ha): 20
phytotoxicity rating ECHCG ([1]; 250 g ai/ha): 30
phytotoxicity rating SETVI ([2]; 63 g ai/ha): 10
phytotoxicity rating SETVI ([2]; 250 g ai/ha): 10
phytotoxicity rating IPOHE ([3]; 63 g ai/ha): 100
phytotoxicity rating IPOHE ([3]; 250 g ai/ha): 90
phytotoxicity rating CHEAL ([5]; 63 g ai/ha): 90
phytotoxicity rating CHEAL ([5]; 250 g ai/ha): 100
phytotoxicity rating DIGSA ([6]; 63 g ai/ha): 0
phytotoxicity rating DIGSA ([6]; 250 g ai/ha): 20
phytotoxicity rating AMARE [7, 23]: 100
phytotoxicity rating AMARE [7, 24]: 100
phytotoxicity rating CASOB ([8]; 63 g ai/ha): 80
phytotoxicity rating CASOB ([8]; 250 g ai/ha): 95
phytotoxicity rating ABUTH ([9]; 63 g ai/ha): 95
phytotoxicity rating ABUTH ([9]; 250 g ai/ha): 90
phytotoxicity rating CORN (crop damage) ([10]; 63 g ai/ha): 10
phytotoxicity rating CORN (crop damage) ([10]; 250 g ai/ha): 80
phytotoxicity rating RICE (crop damage) ([11]; 63 g ai/ha): 10
phytotoxicity rating RICE (crop damage) ([11]; 250 g ai/ha): 70
